Measured values as given in ChEMBL document CHEMBL1141566, “Synthesis and antitumor evaluation of bis aza-anthracene-9,10-diones and bis aza-anthrapyrazole-6-ones” (2008).

Columns and labels:
Type in all cases: functional
[1] = system: HT-29; assay: Effect on apoptotic NOL3 gene expression in human HT29 cells after 12 hrs
[2] = system: HT-29; assay: Effect on apoptotic BCL2L10 gene expression in human HT29 cells after 6 hrs
[3] = system: HT-29; assay: Effect on proapoptotic TNFRSF10B gene expression in human HT29 cells after 12 hrs
[4] = system: HT-29; assay: Effect on apoptosis in human HT29 PI+/AnnV- cells after 6 hrs by biparametric flow cytometric analysis; details: HT-29, 6 h, read-out: LC50 (the source's name)
[5] = system: HT-29; assay: Effect on proapoptotic BNIP1 gene expression in human HT29 cells after 6 hrs
[6] = system: HT-29; assay: Effect on apoptotic BIRC8 gene expression in human HT29 cells after 12 hrs
[7] = system: HT-29; assay: Effect on apoptosis in human HT29 PI+/AnnV- cells after 12 hrs by biparametric flow cytometric analysis; details: HT-29, 12 h, read-out: LC50 (the source's name)
[8] = system: HT-29; assay: Effect on proapoptotic CIDEB gene expression in human HT29 cells after 6 hrs
[9] = system: HT-29; assay: Effect on proapoptotic CARD6 gene expression in human HT29 cells after 6 hrs
[10] = system: HT-29; assay: Effect on apoptosis in human HT29 PI-/AnnV- cells after 6 hrs by biparametric flow cytometric analysis; details: HT-29, 6 h, read-out: LC50 (the source's name)
[11] = system: HT-29; assay: Effect on apoptotic CFLAR gene expression in human HT29 cells after 6 hrs
[12] = system: HT-29; assay: Effect on apoptotic BAG4 gene expression in human HT29 cells after 6 hrs
[13] = system: HT-29; assay: Effect on proapoptotic BAK1 gene expression in human HT29 cells after 12 hrs
[14] = system: HT-29; assay: Effect on apoptosis in human HT29 PI+/AnnV+ cells after 6 hrs by biparametric flow cytometric analysis; details: HT-29, 6 h, read-out: LC50 (the source's name)
[15] = system: HT-29; assay: Effect on apoptotic BAG1 gene expression in human HT29 cells after 6 hrs
[16] = system: HT-29; assay: Effect on apoptotic CFLAR gene expression in human HT29 cells after 12 hrs
[17] = system: HT-29; assay: Effect on apoptosis in human HT29 PI-/AnnV+ cells after 12 hrs by biparametric flow cytometric analysis; details: HT-29, 12 h, read-out: LC50 (the source's name)
[18] = system: HT-29; assay: Effect on proapoptotic BAX gene expression in human HT29 cells after 6 hrs
[19] = system: HT-29; assay: Effect on apoptotic BRAF gene expression in human HT29 cells after 12 hrs
[20] = system: HT-29; assay: Effect on apoptosis in human HT29 PI+/AnnV+ cells after 12 hrs by biparametric flow cytometric analysis; details: HT-29, 12 h, read-out: LC50 (the source's name)
[21] = system: HT-29; assay: Effect on proapoptotic BAX gene expression in human HT29 cells after 12 hrs
[22] = system: HT-29; assay: Effect on proapoptotic NOD1 gene expression in human HT29 cells after 6 hrs
[23] = system: HT-29; assay: Effect on apoptotic BAG4 gene expression in human HT29 cells after 12 hrs
[24] = system: HT-29; assay: Effect on apoptotic BCL10 gene expression in human HT29 cells after 12 hrs
[25] = system: HT-29; assay: Effect on proapoptotic BCL2 gene expression in human HT29 cells after 6 hrs
[26] = system: HT-29; assay: Effect on apoptotic NOL3 gene expression in human HT29 cells after 6 hrs
[27] = system: HT-29; assay: Effect on proapoptotic BNIP3L gene expression in human HT29 cells after 12 hrs
[28] = system: HT-29; assay: Effect on apoptotic BCL2L1 gene expression in human HT29 cells after 6 hrs
[29] = system: HT-29; assay: Effect on proapoptotic BFAR gene expression in human HT29 cells after 6 hrs
[30] = system: HT-29; assay: Effect on apoptotic BIRC3 gene expression in human HT29 cells after 12 hrs
[31] = system: HT-29; assay: Effect on apoptosis in human HT29 PI+/AnnV- cells after 24 hrs by biparametric flow cytometric analysis; details: HT-29, 24 h, read-out: LC50 (the source's name)
[32] = system: HT-29; assay: Effect on proapoptotic CARD6 gene expression in human HT29 cells after 12 hrs
[33] = system: HT-29; assay: Effect on proapoptotic CASP9 gene expression in human HT29 cells after 6 hrs
[34] = system: HT-29; assay: Effect on proapoptotic BCL2L11 gene expression in human HT29 cells after 6 hrs
[35] = system: HT-29; assay: Effect on apoptotic MCL1 gene expression in human HT29 cells after 6 hrs
[36] = system: HT-29; assay: Effect on apoptosis in human HT29 PI-/AnnV+ cells after 6 hrs by biparametric flow cytometric analysis; details: HT-29, 6 h, read-out: LC50 (the source's name)
[37] = system: HT-29; assay: Effect on proapoptotic BNIP3L gene expression in human HT29 cells after 6 hrs
[38] = system: HT-29; assay: Effect on proapoptotic CARD8 gene expression in human HT29 cells after 6 hrs
[39] = system: HT-29; assay: Effect on proapoptotic BCLAF1 gene expression in human HT29 cells after 12 hrs
[40] = system: HT-29; assay: Effect on apoptosis in human HT29 PI-/AnnV- cells after 24 hrs by biparametric flow cytometric analysis; details: HT-29, 24 h, read-out: LC50 (the source's name)
[41] = system: HT-29; assay: Effect on apoptotic MCL1 gene expression in human HT29 cells after 12 hrs
[42] = system: HT-29; assay: Effect on apoptotic GADD45A gene expression in human HT29 cells after 6 hrs
[43] = system: HT-29; assay: Effect on apoptotic IGF1R gene expression in human HT29 cells after 6 hrs
[44] = system: HT-29; assay: Effect on apoptotic AKT1 gene expression in human HT29 cells after 12 hrs
[45] = system: HT-29; assay: Effect on apoptosis in human HT29 PI-/AnnV- cells after 12 hrs by biparametric flow cytometric analysis; details: HT-29, 12 h, read-out: LC50 (the source's name)
[46] = system: HT-29; assay: Effect on proapoptotic TNFRSF10A gene expression in human HT29 cells after 12 hrs
[47] = system: HT-29; assay: Effect on proapoptotic BAK1 gene expression in human HT29 cells after 6 hrs
[48] = system: HT-29; assay: Effect on proapoptotic CASP7 gene expression in human HT29 cells after 6 hrs
[49] = system: HT-29; assay: Effect on proapoptotic LTBR gene expression in human HT29 cells after 6 hrs
[50] = system: HT-29; assay: Effect on apoptotic BIRC8 gene expression in human HT29 cells after 6 hrs
[51] = system: HT-29; assay: Effect on proapoptotic CIDEB gene expression in human HT29 cells after 12 hrs
[52] = system: HT-29; assay: Effect on proapoptotic BFAR gene expression in human HT29 cells after 12 hrs
[53] = system: HT-29; assay: Cytotoxicity against human HT29 cells after 72 hrs; details: HT-29, 72 h
[54] = system: HT-29; assay: Effect on apoptosis in human HT29 PI-/AnnV+ cells after 24 hrs by biparametric flow cytometric analysis; details: HT-29, 24 h, read-out: LC50 (the source's name)
[55] = system: HT-29; assay: Effect on apoptotic BIRC6 gene expression in human HT29 cells after 6 hrs
[56] = system: HT-29; assay: Effect on proapoptotic LTBR gene expression in human HT29 cells after 12 hrs
[57] = system: HT-29; assay: Effect on apoptotic IGF1R gene expression in human HT29 cells after 12 hrs
[58] = system: HT-29; assay: Effect on proapoptotic TNFRSF10A gene expression in human HT29 cells after 6 hrs
[59] = system: HT-29; assay: Effect on apoptosis in human HT29 PI+/AnnV+ cells after 24 hrs by biparametric flow cytometric analysis; details: HT-29, 24 h, read-out: LC50 (the source's name)

**Q.** What does the source list for `CN(C)CCn1nc2c3c(c(NCCCN(C)CCCNc4ccc5c6c(nn5CCN(C)C)-c5cnccc5C(=O)c46)ccc31)C(=O)c1ccncc1-2`?
**A.** Fold change [1]: -3.8; Fold change [2]: 2.2; Fold change [3]: -4.3; CC50 [4]: 3.4 µM; Fold change [5]: 3; Fold change [6]: -33.3; CC50 [7]: 4.2 µM; Fold change [8]: 8.3; Fold change [9]: -2.7; CC50 [10]: 72.5 µM; Fold change [11]: -2.2; Fold change [12]: -7; Fold change [13]: 4.1; CC50 [14]: 1.8 µM; Fold change [15]: -2.5; Fold change [16]: -3.3; CC50 [17]: 32.4 µM; Fold change [18]: 4.1; Fold change [19]: -9.1; CC50 [20]: 3.4 µM; Fold change [21]: 1.3; Fold change [22]: 4.2; Fold change [23]: -3.3; Fold change [24]: -2.2; Fold change [25]: -2.8; Fold change [26]: -2.5; Fold change [27]: 3.6; Fold change [28]: 1.2; Fold change [29]: -7; Fold change [30]: -6.3; CC50 [31]: 7.2 µM; Fold change [32]: -6.7; Fold change [33]: 2.2; Fold change [34]: 7.7; Fold change [35]: -5; CC50 [36]: 22.3 µM; Fold change [37]: 7.4; Fold change [38]: 4; Fold change [39]: 136; CC50 [40]: 8.3 µM; Fold change [41]: -2.7; Fold change [42]: 8.8; Fold change [43]: -38.5; Fold change [44]: -6.3; CC50 [45]: 60 µM; Fold change [46]: -5.9; Fold change [47]: 4.5; Fold change [48]: 5.6; Fold change [49]: -5.3; Fold change [50]: -5.6; Fold change [51]: 2.4; Fold change [52]: -2.5; GI50 [53]: 0.00036 µM; LC50 (concentration killing 50% of cells) [53]: 9.8 µM; TGI [53]: 1.3 µM; CC50 [54]: 62.3 µM; Fold change [55]: -2.6; Fold change [56]: -4.3; Fold change [57]: -4; Fold change [58]: -2.5; CC50 [59]: 22.2 µM
